# Measured values reported in ChEMBL document CHEMBL5346899, “PKM2/PDK1 dual-targeted shikonin derivatives restore the sensitivity of EGFR-mutated NSCLC cells to gefitinib by remodeling glucose metabolism” (Eur J Med Chem, 2023).
# Activity calls are given as the source filed them. No cut-off for these calls is given here.
# Key:
# A549 [1] = assay: cells; type: functional, cell-based; conditions: Homo sapiens, A549, 24 h
# Description: Antiproliferative activity against human A549 cells assessed as inhibition of cell growth incubated for 24 hrs by CCK-8 assay
# NCI-H1975 [2] = assay: cells; type: functional, cell-based; conditions: Homo sapiens, NCI-H1975, 24 h
# Description: Antiproliferative activity against human NCI-H1975 cells assessed as inhibition of cell growth incubated for 24 hrs by CCK-8 assay
# NCI-H1975 [3] = assay: Antiproliferative activity against human NCI-H1975 cells assessed as inhibition of clone formation rate; type: functional, cell-based
# NCI-H1975 [4] = assay: Antiproliferative activity against human NCI-H1975 cells assessed as reduction in clone size; type: functional, cell-based
# HCC827 [5] = assay: Antiproliferative activity against human HCC827 cells assessed as inhibition of clone formation rate; type: functional, cell-based
# NCI-H1299 = assay: Induction of apoptosis in human NCI-H1299 cells assessed as early apoptotic cells at 1 micromol/L incubated for 24 hrs by Annexin V-FITC/PI staining based analysis (reference value: 2.43%); type: functional; conditions: dose 1 µmol/L, at 1 µM
# A549 [6] = assay: Induction of apoptosis in human A549 cells assessed as early apoptotic cells at 1 micromol/L incubated for 24 hrs by Annexin V-FITC/PI staining based analysis (reference value: […]%); type: functional; conditions: dose 1 µmol/L
# A549 [7] = assay: Induction of apoptosis in human A549 cells assessed as early apoptotic cells at 2 micromol/L incubated for 24 hrs by Annexin V-FITC/PI staining based analysis (reference value: […]%); type: functional; conditions: dose 2 µmol/L
# HCC827 [8] = assay: Induction of apoptosis in human HCC827 cells assessed as early apoptotic cells at 1 micromol/L incubated for 24 hrs by Annexin V-FITC/PI staining based analysis (reference value: 9.14%); type: functional; conditions: dose 1 µmol/L, at 1 µM
# HCC827 [9] = assay: Induction of apoptosis in human HCC827 cells assessed as late apoptotic cells at 2 micromol/L incubated for 24 hrs by Annexin V-FITC/PI staining based analysis (reference value: 8.42%); type: functional; conditions: dose 2 µmol/L, at 2 µM
# NCI-H1975 [10] = assay: Induction of apoptosis in human NCI-H1975 cells assessed as regulation of cleaved Caspase-9 expression by Western blot analysis; type: functional, cell-based
# NCI-H1975 [11] = assay: Induction of apoptosis in human NCI-H1975 cells assessed as regulation of cytochrome c expression by Western blot analysis; type: functional, cell-based
# NCI-H1975 [12] = assay: Induction of apoptosis in human NCI-H1975 cells assessed as regulation of FADD expression by Western blot analysis; type: functional, cell-based
# NCI-H1975 [13] = assay: Induction of apoptosis in human NCI-H1975 cells assessed as regulation of Smac expression by Western blot analysis; type: functional, cell-based
# NCI-H1975 [14] = assay: Induction of mitochondrial transmembrane potential dissipation in human NCI-H1975 cells assessed as cells with low mitochondrial transmembrane potential at 1 micromol/L by FL-1/FL-2 channel based fluorescence analysis (reference value: 2.13%); type: functional; conditions: dose 1 µmol/L; at 1 µM
# A549 [15] = assay: Induction of intracellular ROS accumulation in human A549 cells; type: functional, cell-based
# NCI-H1975 [16] = assay: Induction of intracellular ROS accumulation in human NCI-H1975 cells; type: functional, cell-based
# Pyruvate kinase PKM [17] = molecular target: T1, Pyruvate kinase PKM (Homo sapiens, UniProt P14618); assay: Activation of PKM2 in siRNA mediated PKM2 knockdown human NCI-H1975 cells at 1 to 2 micromol/L by Western blot analysis; type: cell-based; conditions: dose 1-2 µmol/L
# T1 sequence (P14618 2-531 limits assumed): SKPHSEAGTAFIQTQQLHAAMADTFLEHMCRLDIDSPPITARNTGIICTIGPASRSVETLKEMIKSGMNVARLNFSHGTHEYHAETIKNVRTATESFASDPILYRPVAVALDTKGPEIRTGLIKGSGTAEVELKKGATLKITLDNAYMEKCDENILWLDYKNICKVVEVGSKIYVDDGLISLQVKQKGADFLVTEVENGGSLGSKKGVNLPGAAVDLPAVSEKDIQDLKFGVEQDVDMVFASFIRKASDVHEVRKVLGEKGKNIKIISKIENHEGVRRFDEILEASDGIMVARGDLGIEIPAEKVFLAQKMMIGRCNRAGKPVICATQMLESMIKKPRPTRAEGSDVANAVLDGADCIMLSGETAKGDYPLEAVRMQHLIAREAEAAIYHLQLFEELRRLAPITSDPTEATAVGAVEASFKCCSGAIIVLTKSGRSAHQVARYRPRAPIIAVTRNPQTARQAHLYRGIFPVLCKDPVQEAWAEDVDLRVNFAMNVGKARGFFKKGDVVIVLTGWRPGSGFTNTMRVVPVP
# NCI-H1975 [18] = assay: Antiproliferative activity against siRNA mediated PKM2 knockdown human NCI-H1975 cells assessed as inhibition of cell growth incubated for 24 hrs by CCK-8 assay; type: functional, cell-based; conditions: NCI-H1975, 24 h
# Pyruvate kinase PKM [19] = molecular target: T1, Pyruvate kinase PKM; assay: Inhibition of PKM2 (unknown origin) nuclear translocation
# [20] = molecular target: T2, [Pyruvate dehydrogenase (acetyl-transferring)] kinase isozyme 1, mitochondrial (Homo sapiens, UniProt Q15118); assay: Inhibition of PDK1 in human NCI-H1975 cells at 1 to 2 micromol/L by Western blot analysis; type: cell-based; conditions: dose 1-2 µmol/L
# [21] = molecular target: T2, [Pyruvate dehydrogenase (acetyl-transferring)] kinase isozyme 1, mitochondrial; assay: Inhibition of PDK1 in human HCC827 cells at 1 to 2 micromol/L by Western blot analysis; type: cell-based; conditions: dose 1-2 µmol/L
# HCC827 [22] = assay: Downregulation of PDK1 protein expression in human HCC827 cells at 1 to 2 micromol/L by Western blot analysis; type: functional, cell-based; conditions: dose 1-2 µmol/L
# NCI-H1975 [23] = assay: Upregulation of PDH protein expression in human NCI-H1975 cells at 1 to 2 micromol/L by Western blot analysis; type: functional, cell-based; conditions: dose 1-2 µmol/L
# NCI-H1975 [24] = assay: Induction of apoptosis in human NCI-H1975 cells transfected with siRNA assessed as early apoptotic cells at 1 micromol/L incubated for 24 hrs by Annexin V-FITC/PI staining based analysis (reference value: 1.16%); type: functional; conditions: dose 1 µmol/L, at 1 µM
# NCI-H1975 [25] = assay: Induction of apoptosis in human NCI-H1975 cells with siRNA mediated […] knockdown assessed as early apoptotic cells at 1 micromol/L incubated for 24 hrs by Annexin V-FITC/PI staining based analysis (reference value: 2.54%); type: functional; conditions: dose 1 µmol/L, at 1 µM
# NCI-H1975 [26] = assay: Induction of apoptosis in human NCI-H1975 cells with siRNA mediated […] knockdown assessed as early apoptotic cells at 2 micromol/L incubated for 24 hrs by Annexin V-FITC/PI staining based analysis (reference value: 2.54%); type: functional; conditions: dose 2 µmol/L, at 2 µM
# NCI-H1975 [27] = assay: Inhibition of glycolysis in human NCI-H1975 cells assessed as reduction in lactate production incubated for 1 hrs by colorimetric assay; type: functional, cell-based
# NCI-H1975 [28] = assay: Inhibition of NADPH production in human NCI-H1975 cells incubated for 2 hrs by NADP+/NADPH assay; type: functional, cell-based
# NCI-H1975 [29] = assay: Antitumor activity against human NCI-H1975 cells xenografted in athymic nu/nu mouse assessed as reduction in tumor size at 2.4 to 4.8 mg/kg, ip administered every 2 days for 11 days by vernier caliper method; type: functional, organism-based; conditions: dose 2.4-4.8 mg/kg, time 11.0 day
# NCI-H1975 [30] = assay: Antitumor activity against human NCI-H1975 cells xenografted in athymic nu/nu mouse assessed as inhibition of tumor cell proliferation at 2.4 to 4.8 mg/kg, ip administered every 2 days for 11 days by Ki67 staining based analysis; type: functional, organism-based; conditions: dose 2.4-4.8 mg/kg, time 11.0 day
# [31] = Acute toxicity in ICR mouse assessed as reduction in animal survival rate at 2.4 to 38.4 mg/kg, ip administered once for 14 days and measured every day; type: organism-based; conditions: in vivo, 336 h, dose 2.4-38.4 mg/kg, time 14 day
# NCI-H1975 [32] = assay: Synergistic antiproliferative activity against human NCI-H1975 cells harboring EGFR mutant assessed as cell growth inhibition at 0.5 to 4 micromol/L incubated for 24 hrs in presence of 2.5 to 20 micromol/L gefitinib by CCK-8 assay; type: functional, cell-based; conditions: dose 0.5-4 µmol/L
# NCI-H1975 [33] = assay: Induction of apoptosis in human NCI-H1975 cells assessed as early apoptotic cells at 0.5 micromol/L incubated for 24 hrs in presence of gefitinib by Annexin V-FITC/PI staining based analysis (reference value: 2.55%); type: functional; conditions: dose 0.5 µmol/L, at 0.5 µM
# NCI-H1975 [34] = assay: Induction of apoptosis in human NCI-H1975 cells assessed as late apoptotic cells at 0.5 micromol/L incubated for 24 hrs in presence of gefitinib by Annexin V-FITC/PI staining based analysis (reference value: 8.61%); type: functional; conditions: dose 0.5 µmol/L, at 0.5 µM
# NCI-H1975 [35] = assay: Induction of apoptosis in human NCI-H1975 cells assessed as dead cells at 0.5 micromol/L incubated for 24 hrs in presence of gefitinib by Annexin V-FITC/PI staining based analysis (reference value: 0.103%); type: functional; conditions: dose 0.5 µmol/L, at 0.5 µM
# in vitro = conditions: human, HEK293T cells
# Description: Cytotoxicity against HEK293T cells assessed as inhibition of cell growth incubated for 24 hrs by CCK-8 assay
smiles,measurement,setting,value
COC(=O)[C@H](CS[C@H](CC=C(C)C)C1=CC(=O)c2c(O)ccc(O)c2C1=O)NC(=O)CCCC[C@@H]1CCSC(c2ccccc2C)S1 (some centres not stated),IC50,A549 [1],6.26 µM
same,IC50,NCI-H1975 [2],1.51 µM
same,Activity,NCI-H1975 [3],Dose-Dependent Effect
same,Activity,NCI-H1975 [4],Dose-Dependent Effect
same,Activity,HCC827 [5],Dose-Dependent Effect
same,Activity,NCI-H1299,4.68%
same,Activity,A549 [6],8.74%
same,Activity,A549 [7],11.8%
same,Activity,HCC827 [8],16.5%
same,Activity,HCC827 [9],41.1%
same,Activity,NCI-H1975 [10],Active
same,Activity,NCI-H1975 [11],Active
same,Activity,NCI-H1975 [12],Active
same,Activity,NCI-H1975 [13],Active
same,Activity,NCI-H1975 [14],11.8%
same,Activity,A549 [15],Active
same,Activity,NCI-H1975 [16],Active
same,Activity,Pyruvate kinase PKM [17],inactive
same,IC50,NCI-H1975 [18],8 µM
same,inhibition,Pyruvate kinase PKM [19],Active
same,inhibition,[20],Active
same,inhibition,[21],Active
same,Activity,HCC827 [22],inactive
same,Activity,NCI-H1975 [23],Active
same,Activity,NCI-H1975 [24],3.44%
same,Activity,NCI-H1975 [25],1.82%
same,Activity,NCI-H1975 [26],2.67%
same,inhibition,NCI-H1975 [27],Active
same,inhibition,NCI-H1975 [28],Active
same,Activity,NCI-H1975 [29],Active
same,Activity,NCI-H1975 [30],Active
same,Activity,[31],Non-Toxic
same,Activity,NCI-H1975 [32],Active
same,Activity,NCI-H1975 [33],17.6%
same,Activity,NCI-H1975 [34],25%
same,Activity,NCI-H1975 [35],0.011%
same,IC50 at 24 h,in vitro,99.5 µM
